Here are results for one molecule from paper PMC6321145 (Molecules, 2018).

The target of data set [1] is T1, Aβ1–42 (Homo sapiens, UniProt P05067).
T1 construct: Aβ1–42 (Sigma, St. Louis, MO, USA; counterion, NaOH) stock solution was prepared by dissolving Aβ1–42 peptide in ammonium hydroxide; purchased Sigma
Put plainly: Inhibition of self-induced Aβ1–42 aggregation (ThT fluorescence assay). The data set is classed as biochemical. The protocol:
The formation and aggregation of Aβ1–42 in the brain leads to neurotoxicity in AD. In order to evaluate the activity of our new synthetic compounds to inhibit Aβ1–42 self-induced aggregation, the thioflavin (ThT) fluorescence assay was performed.
All ThT experiments were performed according to our previously published methods. Aβ1–42 (Sigma, St. Louis, MO, USA; counterion, NaOH) stock solution was prepared by dissolving Aβ1–42 peptide in ammonium hydroxide (1% v/v), and diluting with 20 mM phosphate buffer (pH 7.4) to 100 μM. The tested compounds were firstly dissolved in DMSO at a concentration of 10 mM, and then diluted with 20 mM phosphate buffer (pH 7.4) to 40 μM.
For the inhibition of self-induced Aβ1–42 aggregation. Aβ1–42 peptide (2 μL, 50 μM, final concentration) with the tested compound (2 μL, 20 μM, final concentration) or 20 mM phosphate buffer (2 μL) was incubated in 20 mM phosphate buffer (pH 7.4) at 37 °C for 72 h. After incubation, the samples were diluted to a final volume of 36 μL with 50 mM glycine-NaOH buffer (pH 8.5) containing 5 μM Thioflavin T. Fluorescence signal was measured (excitation wavelength 450 nm, emission wavelength 485 nm, and slit widths set to 5 nm) on a monochromator-based multimode microplate reader ([…] M1000, TECAN, Hombrechtikon, Switzerland), adapted for 384-well microtiter plates. […] Each compound was examined in triplicate.

Data set [2] in a line: Oxygen radical absorbance capacity with fluorescein (ORAC-FL) assay. The settings on record: compound 1 μM. The procedure:
Oxidative stress is another crucial event in AD pathogenesis. In order to determine antioxidant activities of our synthetic compounds, the oxygen radical absorbance capacity method with fluorescein (ORAC-FL) assay was performed. with Trolox (6-hydroxy-2,5,7,8-tetramethylchroman-2-carboxylic acid) as the standard, and their antioxidant activity was expressed as Trolox equivalents.
The antioxidant activities of the compounds in vitro were determined by the oxygen radical absorbance capacity fluorescein (ORAC-FL) assay. The tested compounds and (±)-6-hydroxy-2,5,7,8-tetramethylchroman-2-carboxylic acid (Trolox) were dissolved in DMSO at a concentration of 10 mM, and then diluted with 75 mM potassium phosphate buffer (pH 7.4) to 50 μM and 10 μM for use. The fluorescein (FL) stock solution (3.4 mM) was diluted with the same buffer to 136 nM. All the assays were conducted with 75 mM potassium phosphate bufffer (pH 7.4), and the final reaction mixture was 200 μL.
The mixture of compounds (or buffer) (20 μL) and fluorescein (FL, 120 μL) were incubated for 15 min at 37 °C in a black 96-well plate. Then 2,2′-azobis-(amidino-propane)-dihydrochloride (AAPH) solution (60 μL, 40 mM) was rapidly added to the reaction mixture. The fluorescence was recorded every 5 min for 240 min at 485 nm (excitation wavelength) and 535 nm (emission wavelength) (Varioskan Flash Multimode Reader, Thermo Scientific, Waltham, MA, USA), and each sample was prepared and measured for three times independently. […] The net AUC for a sample was calculated using the expression net AUC = AUCsample − AUCblank, The ORAC-FL value of each sample was calculated using the equation of net AUCsample/(AUCTrolox – AUCblank), which was expressed as Trolox equivalents.

Data set [3] concerns SH-SY5Y cells. The experiment in a line: Cellular ROS detection (DCFH-DA) in SH-SY5Y cells treated with t-BuOOH. The class given is cell-based, human. The settings on record: compound 2.5 μM; 0.1 mM t-BuOOH; compared with Trolox. The procedure: To further investigate their antioxidant activity in SH-SY5Y cells, cellular ROS detection assay based on dichlorofluorescein diacetate (DCFH-DA) was performed. with Trolox and N-acetyl-L-cysteine (NAC) as reference compounds.
SH-SY5Y cells were maintained in Dulbecco’s modified Eagle’s medium (DEME) and supplemented with 1 mM glutamine, 10% fetal calf serum, 100 U/mL penicillin, and 100 μg/mL streptomycin. The cultures were maintained at 37 °C in a humidified incubator containing 5% CO2 and were passaged twice weekly.
The antioxidant activity of the compounds in SH-SY5Y cells were tested with the fluorescent probe (2′,7′-dichlorofluorescein diacetate, DCFH-DA) as reported with some variation. SH-SY5Y cells were sub-cultured in 96-well plates at a seeding density of 1 × 10^4 cells per well for 24 h, then the medium was removed, the tested compounds (2.5 μM) was added and incubated for another 24 h at 37 °C. After that, the cells were washed with PBS and incubated with 5 μM DCFH-DA in PBS at 37 °C in 5% CO2 for 30 min. Then DCFH-DA was removed, the cells were washed three times and incubated with 0.1 mM t-BuOOH in PBS for 30 min. After the incubation, the cell fluorescence from each well was measured at 485 nm excitation and 535 nm emission with a monochromator based multimode microplate reader ([…] M1000).

The target in data set [4] is T1, Aβ1–42. The experiment in a line: Inhibition of Cu^2+-induced Aβ1–42 aggregation (ThT-binding assay). The data set is classed as biochemical. The settings on record: [Aβ] = 20 μM, [Cu^2+] = 20 μM, [compound] = 40 μM; 37 °C, 24 h. The procedure: To investigate the ability of compound 6b1 to inhibit Cu^2+-induced Aβ1–42 aggregation, the ThT-binding assay was performed.
Aβ was diluted in […] (pH 6.6) with […]. The mixture of the peptide (10 μL, 20 μM, final concentration) with or without copper (10 μL, 20 μM, final concentration) and the test compound (10 μL, 40 μM, final concentration) was incubated at 37 °C for 24 h. The 30 μL of the sample was diluted to a final volume of 200 μL with 50 mM glycine-NaOH buffer (pH 8.0) containing thioflavin T (5 μM). The detection method was the same as that of self-induced Aβ aggregation experiment.

For data set [5], the system named is SH-SY5Y cells. Put plainly: Cytotoxicity on SH-SY5Y cells (MTT). The class given is cell-based, human. The settings on record: 20 μM. The protocol:
The cytotoxicity of our synthesized compounds was examined in human neuroblastoma SH-SY5Y cells. The cell viability was determined by using methyl thiazolyl tetrazolium (MTT) colorimetry, the cells were treated with different concentrations of compounds (0–100 μM). The result is shown in the Supplementary Materials (Table S1).
The cytotoxicities of the compounds were evaluated using the MTT assay. SH-SY5Y cells were subcultured in 96-well plates at a seeding density of 1 × 10^4 cells per well. After 24 h, the medium was removed and treated with different concentrations of tested compounds for 24 h at 37 °C. The survival of cells was determined with MTT assay. Then 80 μL of medium and 20 μL of MTT (0.5 mg/mL, final concentration) were added to each well and incubated for another 4 h. After the removal of MTT, the formazan crystals were dissolved in DMSO. The amount of formazan was measured using a microculture plate reader at the wavelength of 570 nm. Each concentration was performed in triplicate.

Data set [6] has as its target AChE (Homo sapiens, UniProt P22303). Put plainly: AChE inhibition (data not shown). The class given is biochemical.

T1 sequence (P05067 672-713): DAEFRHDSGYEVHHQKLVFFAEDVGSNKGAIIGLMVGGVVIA
AChE, sequence (P22303 32-614): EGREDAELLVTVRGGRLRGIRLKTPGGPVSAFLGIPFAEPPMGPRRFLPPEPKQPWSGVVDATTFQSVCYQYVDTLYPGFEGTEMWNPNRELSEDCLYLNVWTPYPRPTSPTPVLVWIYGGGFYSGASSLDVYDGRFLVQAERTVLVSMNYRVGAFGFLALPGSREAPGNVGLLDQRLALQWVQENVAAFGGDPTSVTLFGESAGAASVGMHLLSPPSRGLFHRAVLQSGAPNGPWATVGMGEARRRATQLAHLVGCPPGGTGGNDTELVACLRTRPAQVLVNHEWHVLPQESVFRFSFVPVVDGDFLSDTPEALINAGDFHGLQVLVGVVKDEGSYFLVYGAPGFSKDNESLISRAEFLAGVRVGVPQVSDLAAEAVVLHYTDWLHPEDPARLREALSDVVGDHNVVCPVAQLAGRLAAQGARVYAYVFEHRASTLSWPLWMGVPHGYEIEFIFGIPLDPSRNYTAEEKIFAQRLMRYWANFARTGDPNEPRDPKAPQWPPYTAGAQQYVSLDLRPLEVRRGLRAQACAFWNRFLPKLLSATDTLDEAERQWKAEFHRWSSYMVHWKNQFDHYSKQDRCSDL

As usually defined, the IC50 is the point on the concentration scale where inhibition reaches its midpoint. The inhibition is the share of the control response that was lost under treatment. As to `CCN(CC)c1ccc(/C=C/c2cc(NCCCN(C)C)c3ccccc3n2)cc1` [Compound 6b1, (E)-N^1-(2-(4-(Diethylamino)styryl)quinolin-4-yl)-N^3,N^3-dimethylpropane-1,3-diamine], the IC50 in data set [1] (ThT fluorescence method, mean ± SD of three experiments, read-out: IC50 against self-induced Aβ1–42 aggregation) is 4.5 ± 0.7 µM. The molecule further gave an inhibition at 20 µM in data set [1] (inhibitor 20 μM, Aβ1–42 50 μM, ThT, 37 °C, 72 h, mean ± SD) of 95.3 ± 1.2%. The ORAC in data set [2] was 6.23 ± 0.05 μmol of Trolox equivalents/μmol of tested compounds. Moreover, in data set [3], the “Antioxidant activity in SH-SY5Y cells (ROS generation, DCFH-DA fluorescence)” value is on record as “more antioxidant activity than Trolox”. The “Inhibition of Cu^2+-induced Aβ aggregation” value in data set [4] was determined as 85.8%. Moreover, the “Effect on SH-SY5Y cell viability, compound alone” value in data set [5] is on record as “does not affect cell viability”. In data set [6], the “Inhibitory activity toward AChE” value was “weak”.
